Test results as given in patent US12336536B2, “Method for controlling herbicide resistant or tolerant weeds” (BASF Agro B.V., priority 2015, dated 2025).

Legend:
Experiment in all cases: Greenhouse test, solo and combination, post-emergence, 20 DAT
BRSNW = type: in vivo, Brassica napus
Procedure: (§1) The test plants have been seeded, separately for each species, in plastic containers in sandy loamy soil containing 5% of organic matter.
(§2) For the post-emergence treatment, the plants were first grown to the 2 leaf station (GS 12) and applied at GS 12-19 depending on the species. The herbicidal compositions were suspended or emulsified in water as distribution medium and sprayed using finely distributing nozzles.
(§3) The plants have been cultivated due to their individual requirements at 10-25° C. and 20-35° C. The plants were irrigated due to their necessity.
(§4) The racemic mixture (±)-2-exo-(2-Methylbenzyloxy)-1-methyl-4-isopropyl-7-oxabicyclo[2.2.1]heptane was used as herbicide A and formulated as emulsifiable concentrate having an active ingredient concentration of 750 g/l.
(§5) Cyhalofop-butyl (herbicide B.5) was used as an emulsifiable concentrate (EC) formulation having an active ingredient concentration of 200 g/l.
(§6) Metsulfuron-methyl (herbicide B.53) was used as a water soluble granule (SG) formulation having an active ingredient concentration of 20%.
(§7) Bispyribac-sodium (herbicide B.23) was used as a soluble concentrate (SL) formulation having an active ingredient concentration of 408 g/l.
(§8) Quizalofop-P-ethyl (herbicide B.217) was used as a suspension concentrate (SC) formulation having an active ingredient concentration of 106 g/l.
(§9) In the following experiments, the herbicidal activity for the individual herbicide compounds (solo and mixture applications) was assessed 20 days after treatment (DAT).
(§10) The evaluation for the damage on undesired weeds caused by the chemical compositions was carried out using a scale from 0 to 100%, compared to the untreated control plants. Here, 0 means no damage and 100 means complete destruction of the plants.
(§11) The plants used in the greenhouse experiments belonged to the following species:
(§12) E=X+Y−(X·Y/100) • where X=effect in percent using herbicide A at an application rate a; • Y=effect in percent using herbicide B at application rate b; • E=expected effect (in %) of herbicide A+herbicide B at application rates a+b.
(§13) The value E corresponds to the effect (plant damage or injury) which is to be expected if the activity of the individual compounds is additive. If the observed effect is higher than the value E calculated according to the Colby equation, a synergistic effect is present.
(§14) Tables 3 to 6 below relate the herbicidal activity, in greenhouse trials, of the individual actives and the combination applied at different rates and ratios, in post-emergence application at 20 days after treatment (DAT).

ALOMY = type: in vivo, Alopecurus myosuroides
Procedure: as §1, §2, §3, §4, §5, §6, §7, §8, §9, §10, §11, §12, §13, §14

LOLRI = type: in vivo, Lolium rigidum
Procedure: as §1, §2, §3, §4, §5, §6, §7, §8, §9, §10, §11, §12, §13, §14

BROST = type: in vivo, Bromus sterilis
Procedure: as §1, §2, §3, §4, §5, §6, §7, §8, §9, §10, §11, §12, §13, §14

MATIN = type: in vivo, Matricaria inodora
Procedure: as §1, §2, §3, §4, §5, §6, §7, §8, §9, §10, §11, §12, §13, §14

GALAP = type: in vivo, Galium aparine
Procedure: as §1, §2, §3, §4, §5, §6, §7, §8, §9, §10, §11, §12, §13, §14

PAPRH = type: in vivo, Papaver rhoeas
Procedure: as §1, §2, §3, §4, §5, §6, §7, §8, §9, §10, §11, §12, §13, §14

CCCCOC(=O)[C@@H](C)Oc1ccc(Oc2ccc(C#N)cc2F)cc1 [cyhalofop-butyl]
Herbicidal activity (BRSNW; solo application 100 g ai/ha): 0%
Herbicidal activity (ALOMY; solo application 25 g ai/ha): 5%
Herbicidal activity (ALOMY; solo application 50 g ai/ha): 20%
Herbicidal activity (LOLRI; solo application 12.5 g ai/ha): 25%
Herbicidal activity (BROST; solo application 100 g ai/ha): 0%
Herbicidal activity (MATIN; solo application 100 g ai/ha): 0%
Herbicidal activity (GALAP; solo application 50 g ai/ha): 0%
Herbicidal activity (GALAP; solo application 100 g ai/ha): 0%
Herbicidal activity (PAPRH; solo application 12.5 g ai/ha): 0%
Herbicidal activity (PAPRH; solo application 50 g ai/ha): 0%

CCOC(=O)[C@@H](C)Oc1ccc(Oc2cnc3cc(Cl)ccc3n2)cc1 [quizalofop-P-ethyl]
Herbicidal activity (BRSNW; solo application 120 g ai/ha): 0%
Herbicidal activity (ALOMY; solo application 15 g ai/ha): 60%
Herbicidal activity (ALOMY; solo application 30 g ai/ha): 65%
Herbicidal activity (ALOMY; solo application 120 g ai/ha): 85%
Herbicidal activity (LOLRI; solo application 15 g ai/ha): 80%
Herbicidal activity (LOLRI; solo application 30 g ai/ha): 95%
Herbicidal activity (BROST; solo application 15 g ai/ha): 15%
Herbicidal activity (BROST; solo application 30 g ai/ha): 50%
Herbicidal activity (BROST; solo application 60 g ai/ha): 80%
Herbicidal activity (BROST; solo application 120 g ai/ha): 95%
Herbicidal activity (MATIN; solo application 15 g ai/ha): 0%
Herbicidal activity (MATIN; solo application 30 g ai/ha): 0%
Herbicidal activity (MATIN; solo application 60 g ai/ha): 10%
Herbicidal activity (GALAP; solo application 15 g ai/ha): 0%
Herbicidal activity (GALAP; solo application 30 g ai/ha): 0%
Herbicidal activity (PAPRH; solo application 15 g ai/ha): 25%

COc1cc(OC)nc(Oc2cccc(Oc3nc(OC)cc(OC)n3)c2C(=O)O)n1 [bispyribac-sodium]
Herbicidal activity (BRSNW; solo application 15 g ai/ha): 98%
Herbicidal activity (ALOMY; solo application 30 g ai/ha): 0%
Herbicidal activity (ALOMY; solo application 60 g ai/ha): 0%
Herbicidal activity (LOLRI; solo application 60 g ai/ha): 5%
Herbicidal activity (MATIN; solo application 60 g ai/ha): 85%
Herbicidal activity (MATIN; solo application 120 g ai/ha): 90%
Herbicidal activity (GALAP; solo application 15 g ai/ha): 40%
Herbicidal activity (GALAP; solo application 30 g ai/ha): 65%
Herbicidal activity (GALAP; solo application 120 g ai/ha): 95%
Herbicidal activity (PAPRH; solo application 15 g ai/ha): 0%
Herbicidal activity (PAPRH; solo application 60 g ai/ha): 50%
Herbicidal activity (PAPRH; solo application 120 g ai/ha): 50%
